The results in this text go back to BindingDB's records for PubMed 35429911 (Univ. Lille, 2022).

In this assay the target is Programmed cell death 1 ligand/protein 1 (Homo sapiens, UniProt Q9NZQ7+Q15116). The assay can be described thus: Inhibition of human PD-1/PD-L1 interaction in CHO-K1 cells transfected with PD-1-YFP/SHP-2-CFP and measured by FRET assay.

Structures are written as SMILES.

Programmed cell death 1 ligand/protein 1, sequence (Q9NZQ7 whole entry): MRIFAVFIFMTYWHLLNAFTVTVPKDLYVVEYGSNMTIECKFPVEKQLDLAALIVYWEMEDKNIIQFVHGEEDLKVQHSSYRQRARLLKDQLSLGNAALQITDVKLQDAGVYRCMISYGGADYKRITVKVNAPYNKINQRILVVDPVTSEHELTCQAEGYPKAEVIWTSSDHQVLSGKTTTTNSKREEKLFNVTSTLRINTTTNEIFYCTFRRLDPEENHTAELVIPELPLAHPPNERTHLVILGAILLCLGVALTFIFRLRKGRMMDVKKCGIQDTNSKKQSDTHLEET
Programmed cell death 1 ligand/protein 1, sequence (Q15116 whole entry): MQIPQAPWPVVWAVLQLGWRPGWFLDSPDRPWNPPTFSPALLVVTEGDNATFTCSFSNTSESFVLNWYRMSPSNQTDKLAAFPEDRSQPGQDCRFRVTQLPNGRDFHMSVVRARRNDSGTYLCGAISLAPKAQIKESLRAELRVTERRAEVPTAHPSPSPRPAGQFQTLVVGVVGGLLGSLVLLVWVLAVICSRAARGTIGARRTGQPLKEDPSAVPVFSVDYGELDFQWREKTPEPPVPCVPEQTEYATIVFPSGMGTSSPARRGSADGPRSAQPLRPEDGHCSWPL

In the case of `COc1ccccc1C1=NN(c2ccccn2)C(=O)C1`, the midpoint of inhibition, the IC50, lay at 0.007 µM. With `COc1ccc(C2=NN(c3ccccn3)C(=O)C2)cc1` the figure was 0.017 µM.
